Measured values reported in US6358885B1, “Substituted phenylheterocyclic herbicides” (Mississippi State University, priority 1992, dated 2002).

Tests used:
Test in all cases: Test G preemergence/postemergence greenhouse plant response rating 0 to 100
[1] = system: broadleaf signalgrass; format: in vivo, Brachiaria plantaginea; details: 0 to 100 scale
From the text: (§1) Seeds, rhizomes, or plant parts of alfalfa (Medicago ativa), annual bluegrass (Poa annua), bermudagrass (Cynodon dactylon), broadleaf signalgrass (Brachiaria plantaginea), common purslane (Portulaca oleracea), common ragweed (Ambrosia elatior), […] (Paspalum dilatatum), goosegrass (Eleusine indica), guineagrass (Panicum maximum), […] exaltata), johnsongrass (Sorghum halepense), large crabgrass (Digitaria sanguinalis), peanut (Arachis hypoagaea), pitted morningglory (Ipomoea lacunosa), purple nutsedge (Cyperus rotundus), sandbur (Cenchrus echinatus), smooth crabgrass (Digitaria ischaemum) and yellow nutsedge (Cyperus esculentus) were planted into greenhouse pots containing greenhouse planting medium. Each pot contained only one plant species. The test compound was dissolved in a non-phytotoxic solvent and applied preemergence and/or postemergence to the plants. Preemergence applications were made within one day of planting the seeds or plant parts. Postemergence applications were applied when the plants were in the two to four leaf stage (three to twenty cm). Test chemicals were dissolved in a non-phytotoxic solvent and applied preemergence and postemergence to the plants. Untreated control plants and treated plants were placed in the greenhouse and visually evaluated for injury at 13 to 21 days after herbicide application. […] A dash (-) response indicates no test result.

[2] = system: guineagrass; format: in vivo, Panicum maximum; details: 0 to 100 scale
From the text: as §1

[3] = system: annual bluegrass; format: in vivo, Poa annua; details: 0 to 100 scale
From the text: as §1

[4] = system: smooth crabgrass; format: in vivo, Digitaria ischaemum; details: 0 to 100 scale
From the text: as §1

[5] = system: purple nutsedge; format: in vivo, Cyperus rotundus; details: Rate 125 g/ha, 0 to 100 scale
From the text: as §1

[6] = system: peanut; format: in vivo, Arachis hypoagaea; details: 0 to 100 scale
From the text: as §1

[7] = system: bermudagrass; format: in vivo, Cynodon dactylon; details: 0 to 100 scale
From the text: as §1

[8] = system: johnsongrass; format: in vivo, Sorghum halepense; details: 0 to 100 scale
From the text: as §1

[9] = system: common ragweed; format: in vivo, Ambrosia elatior; details: 0 to 100 scale
From the text: as §1

[10] = system: yellow nutsedge; format: in vivo, Cyperus esculentus; details: Rate 125 g/ha, 0 to 100 scale
From the text: as §1

[11] = system: goosegrass; format: in vivo, Eleusine indica; details: 0 to 100 scale
From the text: as §1

[12] = system: itchgrass; format: in vivo, Rottboellia exaltata; details: 0 to 100 scale
From the text: as §1

[13] = system: alfalfa; format: in vivo, Medicago ativa; details: 0 to 100 scale
From the text: as §1

[14] = system: large crabgrass; format: in vivo, Digitaria sanguinalis; details: 0 to 100 scale
From the text: as §1

[15] = system: pitted morningglory; format: in vivo, Ipomoea lacunosa; details: 0 to 100 scale
From the text: as §1

[16] = system: common purslane; format: in vivo, Portulaca oleracea; details: 0 to 100 scale
From the text: as §1

[17] = system: dallisgrass; format: in vivo, Paspalum dilatatum; details: 0 to 100 scale
From the text: as §1

CCS(=O)(=O)Oc1cc(-c2nn3c(c2Cl)CCCC3)c(F)cc1Cl [Compound 25]
Plant response rating, Brdlf Sgnlgrass ([1]; POSTEMERGENCE, Rate 125 g/ha): 0
Plant response rating, Brdlf Sgnlgrass ([1]; POSTEMERGENCE, Rate 250 g/ha): 0
Plant response rating, Brdlf Sgnlgrass ([1]; PREEMERGENCE, Rate 125 g/ha): 0
Plant response rating, Brdlf Sgnlgrass ([1]; PREEMERGENCE, Rate 250 g/ha): 0
Plant response rating, Guineagrass ([2]; POSTEMERGENCE, Rate 125 g/ha): 0
Plant response rating, Guineagrass ([2]; POSTEMERGENCE, Rate 250 g/ha): 0
Plant response rating, Guineagrass ([2]; PREEMERGENCE, Rate 125 g/ha): 0
Plant response rating, Guineagrass ([2]; PREEMERGENCE, Rate 250 g/ha): 0
Plant response rating, Ann Bluegrass ([3]; POSTEMERGENCE, Rate 125 g/ha): 0
Plant response rating, Ann Bluegrass ([3]; POSTEMERGENCE, Rate 250 g/ha): 0
Plant response rating, Ann Bluegrass ([3]; PREEMERGENCE, Rate 125 g/ha): 0
Plant response rating, Ann Bluegrass ([3]; PREEMERGENCE, Rate 250 g/ha): 0
Plant response rating, Smooth Crabgras ([4]; POSTEMERGENCE, Rate 125 g/ha): 0
Plant response rating, Smooth Crabgras ([4]; POSTEMERGENCE, Rate 250 g/ha): 0
Plant response rating, Smooth Crabgras ([4]; PREEMERGENCE, Rate 125 g/ha): 0
Plant response rating, Smooth Crabgras ([4]; PREEMERGENCE, Rate 250 g/ha): 0
Plant response rating, Purple Nutsedge ([5]; POSTEMERGENCE): 0
Plant response rating, Purple Nutsedge ([5]; PREEMERGENCE): 0
Plant response rating, Peanuts ([6]; POSTEMERGENCE, Rate 125 g/ha): 0
Plant response rating, Peanuts ([6]; POSTEMERGENCE, Rate 250 g/ha): 0
Plant response rating, Peanuts ([6]; PREEMERGENCE, Rate 125 g/ha): 0
Plant response rating, Peanuts ([6]; PREEMERGENCE, Rate 250 g/ha): 0
Plant response rating, Bermudagrass ([7]; POSTEMERGENCE, Rate 125 g/ha): 0
Plant response rating, Bermudagrass ([7]; POSTEMERGENCE, Rate 250 g/ha): 0
Plant response rating, Bermudagrass ([7]; PREEMERGENCE, Rate 125 g/ha): 0
Plant response rating, Bermudagrass ([7]; PREEMERGENCE, Rate 250 g/ha): 0
Plant response rating, Johnsongrass ([8]; POSTEMERGENCE, Rate 125 g/ha): 0
Plant response rating, Johnsongrass ([8]; POSTEMERGENCE, Rate 250 g/ha): 0
Plant response rating, Johnsongrass ([8]; PREEMERGENCE, Rate 125 g/ha): 0
Plant response rating, Johnsongrass ([8]; PREEMERGENCE, Rate 250 g/ha): 0
Plant response rating, Cmn Ragweed ([9]; POSTEMERGENCE, Rate 125 g/ha): 50
Plant response rating, Cmn Ragweed ([9]; POSTEMERGENCE, Rate 250 g/ha): 0
Plant response rating, Cmn Ragweed ([9]; PREEMERGENCE, Rate 125 g/ha): 0
Plant response rating, Cmn Ragweed ([9]; PREEMERGENCE, Rate 250 g/ha): 0
Plant response rating, Yellow Nutsedge ([10]; POSTEMERGENCE): 0
Plant response rating, Yellow Nutsedge ([10]; PREEMERGENCE): 0
Plant response rating, Goosegrass ([11]; POSTEMERGENCE, Rate 125 g/ha): 0
Plant response rating, Goosegrass ([11]; POSTEMERGENCE, Rate 250 g/ha): 0
Plant response rating, Goosegrass ([11]; PREEMERGENCE, Rate 125 g/ha): 0
Plant response rating, Goosegrass ([11]; PREEMERGENCE, Rate 250 g/ha): 0
Plant response rating, Itchgrass ([12]; POSTEMERGENCE, Rate 125 g/ha): 0
Plant response rating, Itchgrass ([12]; POSTEMERGENCE, Rate 250 g/ha): 0
Plant response rating, Itchgrass ([12]; PREEMERGENCE, Rate 125 g/ha): 0
Plant response rating, Itchgrass ([12]; PREEMERGENCE, Rate 250 g/ha): 0
Plant response rating, Alfalfa Var. ([13]; POSTEMERGENCE, Rate 125 g/ha): 0
Plant response rating, Alfalfa Var. ([13]; POSTEMERGENCE, Rate 250 g/ha): 0
Plant response rating, Alfalfa Var. ([13]; PREEMERGENCE, Rate 125 g/ha): 0
Plant response rating, Alfalfa Var. ([13]; PREEMERGENCE, Rate 250 g/ha): 0
Plant response rating, Large Crabgrass ([14]; POSTEMERGENCE, Rate 125 g/ha): 0
Plant response rating, Large Crabgrass ([14]; POSTEMERGENCE, Rate 250 g/ha): 0
Plant response rating, Large Crabgrass ([14]; PREEMERGENCE, Rate 125 g/ha): 0
Plant response rating, Large Crabgrass ([14]; PREEMERGENCE, Rate 250 g/ha): 0
Plant response rating, Pit Morninglory ([15]; POSTEMERGENCE, Rate 125 g/ha): 0
Plant response rating, Pit Morninglory ([15]; POSTEMERGENCE, Rate 250 g/ha): 0
Plant response rating, Pit Morninglory ([15]; PREEMERGENCE, Rate 125 g/ha): 0
Plant response rating, Pit Morninglory ([15]; PREEMERGENCE, Rate 250 g/ha): 0
Plant response rating, Cmn Purslane ([16]; POSTEMERGENCE, Rate 125 g/ha): 100
Plant response rating, Cmn Purslane ([16]; POSTEMERGENCE, Rate 250 g/ha): 60
Plant response rating, Cmn Purslane ([16]; PREEMERGENCE, Rate 125 g/ha): 0
Plant response rating, Cmn Purslane ([16]; PREEMERGENCE, Rate 250 g/ha): 0
Plant response rating, Dallisgrass ([17]; POSTEMERGENCE, Rate 125 g/ha): 0
Plant response rating, Dallisgrass ([17]; POSTEMERGENCE, Rate 250 g/ha): 0
Plant response rating, Dallisgrass ([17]; PREEMERGENCE, Rate 125 g/ha): 0
Plant response rating, Dallisgrass ([17]; PREEMERGENCE, Rate 250 g/ha): 0
